# Results reported in patent publication US9730944B2, “Antiviral activity of novel bicyclic heterocycles” (priority 2010, dated 2017).
# Where two headings read alike, the source gives them in different places.
# Key:
# HIV-1 strain IIIB = assay: Inhibition of replication of HIV-1 (IIIB strain) in MT-4 cells, MTT assay; assay type: cell-based; conditions: read-out: EC50 (μM) HIV-1 (IIIB)
# HIV-2 strain (ROD) = assay: Inhibition of replication of HIV-2 (ROD strain) in MT-4 cells, MTT assay; assay type: cell-based; conditions: Human immunodeficiency virus 2, MT4, 120 h, read-out: EC50 (μM) HIV-2 (ROD)
# poliovirus (PV type 1) = assay: microbe, parasite or virus in culture; assay type: cell-based; conditions: Enterovirus C, read-out: PV-1 EC50
# poliovirus (PV type 2) = assay: microbe, parasite or virus in culture; assay type: cell-based; conditions: Enterovirus C, read-out: PV-2 EC50
# poliovirus (PV type 3) = assay: microbe, parasite or virus in culture; assay type: cell-based; conditions: Enterovirus C, read-out: PV-3 EC50
# Vero cells = conditions: African green monkey
# Hela H cells = conditions: human
# in vitro [1] = conditions: human
# in vitro [2] = conditions: African green monkey, PV CC50
# in vitro [3] = conditions: human, PV CC50
# hRV-2 = assay: Rhinovirus type 2 antiviral assay in Hela Rh cells, MTS readout; assay type: cell-based, Human rhinovirus
# hRV-9 = assay: Rhinovirus type 9 antiviral assay in Hela Rh cells, MTS readout; assay type: cell-based, Human rhinovirus
# hRV-14 = assay: Rhinovirus type 14 antiviral assay in Hela Rh cells, MTS readout; assay type: cell-based, Human rhinovirus
# hRV-15 = assay: Rhinovirus type 15 antiviral assay in Hela Rh cells, MTS readout; assay type: cell-based, Human rhinovirus
# hRV-39 = assay: Rhinovirus type 39 antiviral assay in Hela Rh cells, MTS readout; assay type: cell-based, Human rhinovirus
# hRV-41 = assay: Rhinovirus type 41 antiviral assay in Hela Rh cells, MTS readout; assay type: cell-based, Human rhinovirus
# hRV-42 = assay: Rhinovirus type 42 antiviral assay in Hela Rh cells, MTS readout; assay type: cell-based, Human rhinovirus
# hRV-45 = assay: Rhinovirus type 45 antiviral assay in Hela Rh cells, MTS readout; assay type: cell-based, Human rhinovirus
# hRV-63 = assay: Rhinovirus type 63 antiviral assay in Hela Rh cells, MTS readout; assay type: cell-based, Human rhinovirus
# hRV-70 = assay: Rhinovirus type 70 antiviral assay in Hela Rh cells, MTS readout; assay type: cell-based, Human rhinovirus
# hRV-72 = assay: Rhinovirus type 72 antiviral assay in Hela Rh cells, MTS readout; assay type: cell-based, Human rhinovirus
# hRV-85 = assay: Rhinovirus type 85 antiviral assay in Hela Rh cells, MTS readout; assay type: cell-based, Human rhinovirus
# hRV-86 = assay: Rhinovirus type 86 antiviral assay in Hela Rh cells, MTS readout; assay type: cell-based, Human rhinovirus
# Hela Rh cells = assay: Cytostatic/cytotoxic effect in Hela Rh cells (rhinovirus methodology, MTS)
# hRV-29 = assay: Rhinovirus type 29 antiviral assay in Hela Rh cells, MTS readout; assay type: cell-based; conditions: Human rhinovirus sp., HRV29, HeLa Rh, methodology of example 451; read-out: EC50 (μg/ml) hRV-29
# hRV-59 = assay: Rhinovirus type 59 antiviral assay in Hela Rh cells, MTS readout; assay type: cell-based; conditions: Human rhinovirus sp., HRV59, HeLa Rh; methodology of example 451; read-out: EC50 (μg/ml) hRV-59
# hRV-89 = assay: Rhinovirus type 89 antiviral assay in Hela Rh cells, MTS readout; assay type: cell-based, Human rhinovirus; conditions: Rhinovirus A, HRV89, HeLa Rh; methodology of example 451; read-out: EC50 (μg/ml) hRV-89
# enterovirus (EV71) = assay: Enterovirus (EV71) antiviral assay in RD cells; assay type: cell-based
# coxsackie virus (CVA9) = assay: Coxsackievirus (CVA9) antiviral assay in BGM cells; assay type: cell-based; conditions: Enterovirus B
# [4] = system: Enteric Cytopathic Human Orphan virus (ECHO11); assay: organism not typed; assay type: cell-based; conditions: BGM, read-out: EC50 (ECHO virus)
# in vitro [5] = conditions: African green monkey
# [6] = Cytotoxicity in RD cells (enterovirus methodology); conditions: human
# [7] = Cytotoxicity reported with the coxsackievirus (CVA9) assay; conditions: African green monkey
# [8] = Cytostatic/cytotoxic effect in Hela Rh cells (rhinovirus methodology, MTS); conditions: human, CC50 (μg/ml), rhinovirus methodology of example 451
# [9] = biological target: purine nucleoside phosphorylase (Homo sapiens, UniProt P00491); conditions: J. C. Sircar et al. J. Med. Chem. 1986, 29, 1804-1806; cited from earlier work
# [10] = system: genotype 1a H-77 replicon; assay: HCV-1a replicon potency in RLuc-1 cells, bioluminescence; assay type: cell-based; conditions: RLuc-1 cells, 72 hours, bioluminescence; read-out: HCV-1a Replicon EC50
# genotype 1b replicon = assay: HCV genotype 1b replicon potency in R-luc cells, bioluminescence; assay type: cell-based; conditions: 72 hours, average of two or more independent experiments ± std. dev; read-out: Stable replicon cell lines EC50 (μM) Genotype1b (R-luc)
# [11] = system: genotype 1a H-77 replicon; assay: HCV genotype 1a replicon potency in GLuc-1 cells, bioluminescence; assay type: cell-based; conditions: 72 hours, average of two or more independent experiments ± std. dev; read-out: Stable replicon cell lines EC50 (μM) Genotype 1a (Gluc-1)
# [12] = system: infectious genotype 2a virus (a J6/JFH-1 chimera); assay: JFH-1 HCV-2a virus assay in Lunet-CD81 cells, NS3 expression readout; assay type: cell-based; conditions: J6/JFH-1 chimera, MOI of 1, 72 hours, NS3 readout; read-out: Genotype 2a Virus (Lunet-CD81) EC50
# RLuc-1 cells = assay: Cytotoxicity in HCV-1a replicon cells, Promega CellTiter-Glo cell viability assay; conditions: read-out: HCV-1a Replicon CC50; replicon cells, 72 hours, CellTiter-Glo
# [13] = MT-4 cells, MTT assay, five days after infection, 50% protection from cytopathic effect
# [14] = Human immunodeficiency virus 1, IIIB, MT4, 120 h, MT-4 cells, MTT assay, five days after infection, 50% protection from cytopathic effect
# Sequence of purine nucleoside phosphorylase (P00491 whole entry, species assumed): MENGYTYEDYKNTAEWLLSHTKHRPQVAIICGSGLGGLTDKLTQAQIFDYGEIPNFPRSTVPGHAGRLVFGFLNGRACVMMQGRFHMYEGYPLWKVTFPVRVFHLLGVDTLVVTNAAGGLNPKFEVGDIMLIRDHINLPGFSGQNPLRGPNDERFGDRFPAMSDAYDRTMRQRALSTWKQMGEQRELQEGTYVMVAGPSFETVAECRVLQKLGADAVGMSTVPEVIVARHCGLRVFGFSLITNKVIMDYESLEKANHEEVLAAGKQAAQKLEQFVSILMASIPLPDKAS
compound,measurement,setting,value
"COCCCNc1nc(N)nc2sc(-c3ccc(F)cc3)nc12 [Example 32, 2-(4-fluorophenyl)-N-7-(3-methoxypropyl)thiazolo[5,4-d]pyrimidine-5,7-diamine]",EC50,HIV-1 strain IIIB; [13],> 349 µM
same,CC50,MT-4 cells,> 365 µM
"O=C(COc1ccc(Cl)cc1)N1CCN(c2ncnc3oc(-c4ccc(F)cc4)nc23)CC1 [Example 167, 2-(4-chlorophenoxy)-1-(4-(2-(4-fluorophenyl)oxazolo[5,4-d]pyrimidin-7-yl)piperazin-1-yl)ethanone]",EC50,HIV-1 strain IIIB; [14],> 50 µM
same,EC50,HIV-2 strain (ROD); [13],> 50 µM
same,EC50,poliovirus (PV type 1); HeLa,> 50 µg/mL
same,EC50,poliovirus (PV type 1); Vero,> 50 µg/mL
same,EC50,poliovirus (PV type 2); HeLa,≥ 50 µg/mL
same,EC50,poliovirus (PV type 3); HeLa,> 50 µg/mL
same,EC50,poliovirus (PV type 3); Vero,> 50 µg/mL
same,PV CC50,Vero cells,105.69 µg/mL
same,PV CC50,Hela H cells,31.91 µg/mL
same,CC50,in vitro [1],> 50 µM
same,CC50,in vitro [2],> 150 µg/mL
same,CC50,in vitro [3],> 50 µg/mL
"Nc1nc(N2CCN(C(=O)COc3ccc(Br)cc3)CC2)c2sc(Cc3ccc(F)cc3)nc2n1 [Example 231, 1-(4-(5-amino-2-(4-fluorobenzyl)thiazolo[5,4-c]pyrimidin-7-yl)piperazin-1-yl)-2-(4-bromophenoxy)ethanone]",hRV-2 EC50,hRV-2; Hela Rh cells,=0.51 μg/ml
same,hRV-9 EC50,hRV-9; Hela Rh cells,=0.55 μg/ml
same,hRV-14 EC50,hRV-14; Hela Rh cells,=1.20 μg/ml
same,hRV-15 EC50,hRV-15; Hela Rh cells,=1.38 μg/ml
same,hRV-39 EC50,hRV-39; Hela Rh cells,=0.34 μg/ml
same,hRV-41 EC50,hRV-41; Hela Rh cells,=0.89 μg/ml
same,hRV-42 EC50,hRV-42; Hela Rh cells,=1.26 μg/ml
same,hRV-45 EC50,hRV-45; Hela Rh cells,=2.22 μg/ml
same,hRV-63 EC50,hRV-63; Hela Rh cells,=2.32 μg/ml
same,hRV-70 EC50,hRV-70; Hela Rh cells,=4.60 μg/ml
same,hRV-72 EC50,hRV-72; Hela Rh cells,=4.95 μg/ml
same,hRV-85 EC50,hRV-85; Hela Rh cells,=2.21 μg/ml
same,hRV-86 EC50,hRV-86; Hela Rh cells,=4.42 μg/ml
same,CC50,Hela Rh cells,>50.00 µg/mL
"Nc1nc(N2CCN(C(=O)COc3ccc(Cl)cc3)CC2)c2nc(-c3ccc(F)cc3)sc2n1 [Example 45, 1-(4-(5-amino-2-(4-fluorophenyl)thiazolo[5,4-d]pyrimidin-7-yl)piperazin-1-yl)-2-(4-chlorophenoxy)ethanone]",EC50,HIV-1 strain IIIB; [14],0.73 µM
same,EC50,HIV-2 strain (ROD); [13],0.45 µM
same,EC50,poliovirus (PV type 1); HeLa,< 0.023 µg/mL
same,EC50,poliovirus (PV type 1); Vero,< 0.023 µg/mL
same,EC50,poliovirus (PV type 2); HeLa,< 0.023 µg/mL
same,EC50,poliovirus (PV type 2); Vero,< 0.023 µg/mL
same,EC50,poliovirus (PV type 3); HeLa,< 0.023 µg/mL
same,EC50,poliovirus (PV type 3); Vero,< 0.023 µg/mL
same,EC50,"hRV-2; Rhinovirus A, HRV2, HeLa Rh, methodology of example 451, read-out: EC50 (μg/ml) hRV-2",0.0095 µg/mL
same,EC50,"hRV-9; Human rhinovirus sp., HRV9, HeLa Rh, methodology of example 451, read-out: EC50 (μg/ml) hRV-9",0.0082 µg/mL
same,EC50,"hRV-14; Rhinovirus B, HRV14, HeLa Rh, methodology of example 451, read-out: EC50 (μg/ml) hRV-14",0.0701 µg/mL
same,EC50,"hRV-15; Human rhinovirus sp., HRV15, HeLa Rh, methodology of example 451, read-out: EC50 (μg/ml) hRV-15",0.017 µg/mL
same,EC50,hRV-29,0.011 µg/mL
same,EC50,"hRV-39; Human rhinovirus sp., HRV39, HeLa Rh, methodology of example 451, read-out: EC50 (μg/ml) hRV-39",0.012 µg/mL
same,EC50,"hRV-41; Human rhinovirus sp., HRV41, HeLa Rh, methodology of example 451, read-out: EC50 (μg/ml) hRV-41",0.0129 µg/mL
same,EC50,"hRV-42; Human rhinovirus sp., HRV42, HeLa Rh, methodology of example 451, read-out: EC50 (μg/ml) hRV-42",0.0142 µg/mL
same,EC50,"hRV-45; Human rhinovirus sp., HRV45, HeLa Rh, methodology of example 451, read-out: EC50 (μg/ml) hRV-45",0.198 µg/mL
same,EC50,hRV-59,0.02 µg/mL
same,EC50,"hRV-63; Human rhinovirus sp., HRV63, HeLa Rh, methodology of example 451, read-out: EC50 (μg/ml) hRV-63",0.018 µg/mL
same,EC50,"hRV-70; Human rhinovirus sp., HRV70, HeLa Rh, methodology of example 451, read-out: EC50 (μg/ml) hRV-70",0.0718 µg/mL
same,EC50,"hRV-72; Human rhinovirus sp., HRV72, HeLa Rh, methodology of example 451, read-out: EC50 (μg/ml) hRV-72",0.0736 µg/mL
same,EC50,"hRV-85; Human rhinovirus sp., HRV85, HeLa Rh, methodology of example 451, read-out: EC50 (μg/ml) hRV-85",0.0295 µg/mL
same,EC50,"hRV-86; Human rhinovirus sp., HRV86, HeLa Rh, methodology of example 451, read-out: EC50 (μg/ml) hRV-86",0.047 µg/mL
same,EC50,hRV-89,0.021 µg/mL
same,EC50,enterovirus (EV71),0.0695 µg/mL
same,EC50,coxsackie virus (CVA9),0.29 µg/mL
same,EC50,[4],0.076 µg/mL
same,CC50,in vitro [1],149 µM
same,CC50,in vitro [2],> 150 µg/mL
same,CC50,in vitro [3],> 50 µg/mL
same,CC50,in vitro [5],28.7 µg/mL
same,CC50,[6],27.8 µg/mL
same,CC50,[7],25.7 µg/mL
same,CC50,[8],21.7 µg/mL
"Nc1nc2sc(N)nc2c(=O)[nH]1 [2,5-Diaminothiazolo[5,4-d]pyrimidin-7(6H)-one]",inhibitor of purine nucleoside phosphorylase,[9],weak inhibitor
"CCOc1nc(N)nc2sc(-c3ccc(F)cc3)cc12 [Example 363, 4-ethoxy-6-(4-fluorophenyl)thieno[2,3-d]pyrimidin-2-amine]",EC50,"HIV-1 strain IIIB; Human immunodeficiency virus 1, IIIB, MT4, 120 h",≥ 432 µM
same,EC50,HIV-2 strain (ROD),≥ 432 µM
same,melting point,,142 °C
same,CC50,in vitro [1],432 µM
"CCCc1nc2c(N3CCN(C(=O)COc4ccc(Cl)cc4)CC3)nc(N)nc2[nH]1 [Example 397, 1-(4-(2-amino-8-propyl-9H-purin-64)piperazin-1-yl)-2-(4-chlorophenoxy)ethanone]",EC50,[10],1.1 µM
same,EC50,genotype 1b replicon,0.14 ± 0.11 µM
same,EC50,[11],0.181 ± 0.108 µM
same,EC50,[12],31.2 µM
same,CC50,RLuc-1 cells,> 44.4 µM
